Results as given in patent US7250269B2, “Composition for assaying glycoprotein” (Asahi Kasei Pharma Corporation, priority 2001, dated 2007).
Where two headings read alike, the source gives them in different places.

How the values were obtained:
Protease type-XXIV [1] = format: biochemical, Bacillus
Experimental: 5 g/dl HSA (LOT38H7601; manufactured by Sigma-Aldrich Co.)
(§1) 8 μl of a sample was added to 240 μl of the proteolytic reagent incubated at 37° C. […] A relative sensitivity for the experiment using the reagent containing a stabilizer to the experiment using the reagent not containing a stabilizer was calculated assuming that ΔA0obtained using the reagent not containing a stabilizer and used without storing is 100%.

Protease type-XXIV [2] = experiment: Screening of globulin component-selective protease inhibitors (HSA substrate with/without γ-globulin); format: biochemical, Bacillus; details: control 23.8
Description: Using protease type-XXIV (manufactured by Sigma-Aldrich Co.) having high reactivity with the HSA substrate solution, components that decrease the protease reaction with the above globulin substrate solutions were screened based on the HSA substrate solution.
In the R-1 proteolytic reagent, as the deoxycholic acid amide, bisgluconamidopropyldeoxycholamide was used; as the cholic acid amide, 3-[(3-cholamidopropyl)dimethvlammonio]propane sulfonic acid, 3-[(3-cholamidopropyl)dimethylammonio]-2-hydroxypropane sulfonic acid, or bisgluconamidopropylcholamide was used; as the quaternary ammonium salt, benzyltriethylan chloride or benzyltri-n-butylammonium chloride was used; and as quatemary ammonium salt-type cationic surfactant, lauryltrimethylammonium chloride or lauryldimethylamine oxide was used.
• 1. HSA substrate solution: Albumin Human: 40 mg/ml, GA %=10.5% [manufactured by Wako Pure Chemical Industries, Ltd., the albumin concentration in the substrate solution was assayed using an albumin assay kit (albumin II-HA Test Wako; manufactured by Wako Pure Chemical Industries, Ltd.). GA % was assayed using a glycated albumin analyzer (GAA-2000, manufactured by ARKRAY, Inc.). • 2. γ-globulin addition substrate solution, 17.0 mg/ml of γ-globulin [γ-Globulins Human (manufactured by Sigma-Aldrich Co.), Fructosamine value=34 μM] was added to the above HSA substrate solution. <Reaction Procedure>
Absorbances at a wavelength of 546 nm were measured before and after the addition of R-2. The difference of the two measurements was regarded as the absorbance change. The same procedure was conducted using distilled water instead of the substrate to prepare a blank sample. In addition, a reaction solution without the addition of the globulin-selective protease inhibitor was used as a control.
ΔA (HSA) was calculated by subtracting the absorbance change of the blank sample from the absorbance change obtained for the HSA substrate solution. ΔA(+γ-globulin) was calculated by subtracting the absorbance change of the blank sample from the absorbance change obtained for the substrate solution to which γ-globulin was added. Effect of γ-globulin addition=(ΔA(+γ-globulin)−ΔA(HSA))/ΔA(HSA)×100(%)

Protease type-XXIV [3] = experiment: Screening of globulin component-selective protease inhibitors using Hb substrate solution; format: biochemical, Bacillus; details: Hb substrate solution instead of HSA
Experimental: The same measurement was conducted using the Hb substrate solution instead of the HSA substrate solution, provided that when the Hb substrate solution was used, proteins were removed using trichloroacetic acid after the reaction with R-1, then the residue was neutralized and R-2 was added.

R-FOD-II = experiment: Stabilization of enzyme reacting at least with glycated amino acid; format: biochemical; details: for stabilization effect on glycated amino acid assay reagent (relative sensitivity): stored at 37° C. for two days, without stabilizer 30%, FIG. 6
Experimental: as §1, with “ΔA0 obtained” for “ΔA0obtained”

[4] = FOD enzyme activity / substrate specificity on glycated lysine; format: biochemical; details: glycated lysine / glycated valine
Experimental: 164 strains of mutant colonies obtained in Example 15 were cultured for 16 hours at 30° C. in 1.5 ml of a 3.7% BHI liquid medium (manufactured by DIFCO Co.) containing 50 μg/ml of ampicillin and 1 mM of IPTG. 1 ml of the culture broth was centrifuged (15,000 G for one minute at 4° C.) to collect cells. 200 μl of 10 mM Tris-HCl buffer solution (pH 8.0) was added to the collected cells. After crushing the cells using an ultrasonic breaker, the mixture was centrifuged (14,000 G for five minutes at 4° C.) to obtain a cell extract as a supernatant.
The glycated amino acid substrate specificity of FOD-mutated recombinant contained in the cell extract prepared in Example 16 was measured using the above-mentioned FOD enzyme activity measuring method.
Synthesis of an oligonucleotide having the base sequence of 1-27 in the sequence table Sequence ID No. 7 was consigned to an outside source (BEX Co., Ltd.). The oligonucleotide was subjected to the site-directed mutagenesis using the Mutan-K kit (manufactured by Takara Shuzo Co., Ltd.) according to the manual attached to the kit. The mutant gene obtained was incorporated again into the expression plasmid pTV119N, introduced into Escherichia coli host, and cultured at 30° C. for 16 hours in a 3.7% BHI liquid medium containing 50 μg/ml of ampicillin and 1 mM of IPTG to produce mutant FOD protein.

[5] = system: heat-stable type ascorbic acid oxidase (ASO-312); experiment: Effect of buffer agent types on stabilization of ascorbic acid oxidase ASO-312 in the presence of protease; format: biochemical; details: pH 8.0, stored two days at room temperature
Experimental: 1 ml of the above mixed reaction reagent is placed in a small test tube and preheated at 30° C. for five minutes, then 0.10 ml of an appropriately diluted enzyme solution is added. The mixture is stirred to initiate the reaction. After the reaction for exactly 5 minutes, 3.0 ml of 0.2 N hydrochloric acid aqueous solution is added to terminate the reaction. Absorbance (As) at a wavelength of 245 nm is measured. For the blank test, 1 ml of the above reaction solution is placed in a small test tube and preheated at 30° C. for five minutes, then 3.0 ml of 0.2 N hydrochloric acid aqueous solution is added to terminate the reaction. 0.10 ml of an appropriately diluted enzyme solution is added and the mixture is stirred to measure the absorbance (Ab) at a wavelength of 245 nm. The enzyme activity is determined from the difference (Ab-As) between the absorbance (As) after the enzyme reaction and the blank test absorbance (Ab). The amount of enzyme oxidizing 1 μmol of ascorbic acid into dehydroascorbic acid in one minute at 30° C. is defined as 1 U. The calculation formula is shown below. Activity (U/ml)=[(Ab−As)/10.0]×[⅕]×[4.10/0.10]×[1/B] • 10.0: Molecular absorbance coefficient (mM) of ascorbic acid at 245 nm under the conditions of pH 1.0. • 5: Reaction time (min) • 4.10: Total reaction solution (ml) • 0.10: Amount of enzyme sample solution used for the reaction • B: Dilution magnification of the enzyme solution
The above reaction solutions were prepared using various buffer agents. A portion of each solution was used as a control after measuring the ascorbic acid oxidase activity. The above-described <<Method for Measuring the Activity of Ascorbic Acid Oxidase (ASOx)>> was employed for the activity measurement. The remaining portion of reaction solutions was stored for two days at room temperature, and the activity was measured in the same manner. The ratio of the activity after storage for two days at room temperature to the activity of the control was calculated to compare the stability of ascorbic acid oxidases.

[6] = target: T1, Ascorbic acid oxidase (ASO-311) (Cucurbita maxima, UniProt P24792); details: pH 8.0, stored two days at room temperature
T1 sequence (P24792 31-579): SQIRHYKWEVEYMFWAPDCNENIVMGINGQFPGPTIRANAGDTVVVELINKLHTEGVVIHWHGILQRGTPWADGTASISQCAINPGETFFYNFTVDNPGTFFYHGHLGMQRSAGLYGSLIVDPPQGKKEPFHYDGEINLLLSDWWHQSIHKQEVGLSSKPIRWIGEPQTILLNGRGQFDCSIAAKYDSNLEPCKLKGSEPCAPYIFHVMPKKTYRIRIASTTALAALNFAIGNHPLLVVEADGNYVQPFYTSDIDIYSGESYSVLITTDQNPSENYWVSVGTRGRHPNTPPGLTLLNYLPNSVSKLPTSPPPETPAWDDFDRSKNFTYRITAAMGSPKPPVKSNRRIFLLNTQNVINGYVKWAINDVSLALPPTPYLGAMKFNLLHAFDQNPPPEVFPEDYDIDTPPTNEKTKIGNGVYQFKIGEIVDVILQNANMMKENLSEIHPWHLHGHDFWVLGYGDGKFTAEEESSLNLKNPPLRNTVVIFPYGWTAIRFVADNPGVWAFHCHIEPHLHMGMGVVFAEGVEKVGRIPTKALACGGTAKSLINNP

Ascorbic acid oxidase = target: T2, Ascorbic acid oxidase (Cucurbita maxima, UniProt P24792); details: R-1 stored 24 hours at room temperature; FIG. 4
T2 sequence (P24792 31-579): T1 sequence (P24792 31-579)
Experimental: An ascorbic acid-addition substrate solution was prepared by adding one volume of ascorbic acid (1 g/dl) (manufactured by Kokusan Chemical Co., Ltd.) to nine volume of human pool blood serum. A solution prepared by adding distilled water instead of ascorbic acid was used as a control substrate solution.
8 μl of the control substrate solution or ascorbic acid-addition substrate solution was added to 240 μl of R-1 incubated at 37° C. The reaction was initiated at 37° C. and exactly 5 minutes thereafter 80 μl of R-2 was added. Absorbance at 555 nm was measured before the addition of R-2 and five minutes after the addition of R-2. ΔA0 was calculated by subtracting the absorbance change obtained from a blank sample using distilled water instead of the substrate solution from the absorbance change obtained from the absorbance measurement on the control substrate solution and ascorbic acid-addition substrate solution. The same reaction solution R-1 was stored at room temperature for 24 hours, and the absorbance was measured in the same manner to calculate ΔA24. The ratio of ΔA0 and ΔA24 obtained from the ascorbic acid-addition substrate solution was calculated assuming the absorbance change obtained from the control substrate solution as 100.

ASOx = experiment: Storage of ASOx with protease in HEPES buffer solution pH 8.0 (inventors' investigation); format: biochemical; details: pH 8.0, protease and ASOx present
[7] = stored at 37° C. for 24 hours, without stabilizer 60%, FIG. 5
[8] = stored in a liquid state in a refrigerator

## Triethanolamine lauryl sulfate [TEALS]
Protease type-XXIV [1]; [7]
  stabilization effect on proteolytic reagent (relative sensitivity): stabilization effect

## Concanavalin A
Protease type-XXIV [2]; additive concentration 0.21 mg/ml
  Effect of γ-globulin (%): 14.9%
Protease type-XXIV [3]
  effect of inhibiting a protease reaction with globulin: effect of inhibiting a protease reaction with globulin

## NCC(=O)O [glycine, Glycine]
R-FOD-II; storage for four weeks at 37° C.
  decrease in performance of glycated amino acid assay reagent: almost no decrease in performance
R-FOD-II
  stabilization effect on glycated amino acid assay reagent (relative sensitivity): stabilization effect
R-FOD-II; [8]
  storage stability effect: one or more years
[4]
  Kcat Reactivity ratio (a)/(b): 365

## O=S(=O)(O)CCCN1CCN(CCO)CC1 [EPPS]
[5]; Pronase
  Relative activity (%) ASO-312: 31%
[5]; Protease type XXIV
  Relative activity (%) ASO-312: 30%
[6]; Pronase
  Relative activity (%) ASO-311: 13%
[6]; Protease type XXIV
  Relative activity (%) ASO-311: 35%
Ascorbic acid oxidase
  ascorbic acid eliminating capability after storing: almost no ascorbic acid eliminating capability

## O=S(=O)(O)CC(O)CN1CCN(CC(O)CS(=O)(=O)O)CC1 (stereo not drawn) [POPSO]
[5]; Pronase
  Relative activity (%) ASO-312: 80%
[5]; Protease type XXIV
  Relative activity (%) ASO-312: 56%
[6]; Pronase
  Relative activity (%) ASO-311: 80%
[6]; Protease type XXIV
  Relative activity (%) ASO-311: 62%
Ascorbic acid oxidase
  ascorbic acid eliminating capability after storing: no change

## [Ca+2].[Cl-].[Cl-] [calcium chloride, Calcium chloride]
Protease type-XXIV [1]
  decrease in performance of proteolytic reagent: almost no decrease in performance
  stabilization effect on proteolytic reagent (relative sensitivity): stabilization effect
  storage stability effect: one year or more
R-FOD-II
  stabilization effect on glycated amino acid assay reagent (relative sensitivity): stabilization effect

## N=C(N)NCCC[C@H](N)C(=O)O [Reactive 327th amino acid Arginine]
[4]
  Reactivity ratio, glycated lysine / glycated valine: 440

## C[S+](C)[O-] [DMSO, Dimethylsulfoxide]
Protease type-XXIV [1]; storage for 4 weeks at 37° C.
  decrease in performance of proteolytic reagent: almost no decrease in performance
Protease type-XXIV [1]; stored at 37° C. for 24 hours, FIG. 5
  decrease in performance of proteolytic reagent: almost no decrease in performance
Protease type-XXIV [1]; [7]
  stabilization effect on proteolytic reagent (relative sensitivity): stabilization effect
Protease type-XXIV [1]; [8]
  storage stability effect: one year or more

## O=S(=O)(O)CC(O)CN1CCN(CCO)CC1 (stereo not drawn) [HEPPSO]
[5]; Pronase
  Relative activity (%) ASO-312: 34%
[5]; Protease type XXIV
  Relative activity (%) ASO-312: 22%
[6]; Pronase
  Relative activity (%) ASO-311: 14%
[6]; Protease type XXIV
  Relative activity (%) ASO-311: 37%
Ascorbic acid oxidase
  ascorbic acid eliminating capability after storing: almost no ascorbic acid eliminating capability

## [Cl-].[Na+] [sodium chloride, Sodium chloride]
Protease type-XXIV [1]; [7]
  stabilization effect on proteolytic reagent (relative sensitivity): stabilization effect

## CCO [EtOH, Ethanol]
Protease type-XXIV [1]
  stabilization effect on proteolytic reagent (relative sensitivity): stabilization effect

## O=P(O)(O)O [Phosphoric acid, phosphoric acid]
[5]; Pronase
  Relative activity (%) ASO-312: 108%
[5]; Protease type XXIV
  Relative activity (%) ASO-312: 86%
[6]; Pronase
  Relative activity (%) ASO-311: 88%
[6]; Protease type XXIV
  Relative activity (%) ASO-311: 77%

## Alkylbenzyldimethylammonium chloride
Protease type-XXIV [2]; additive concentration 1.0%
  Effect of γ-globulin (%): 23.2%

## C[C@H](CCC(=O)N(CCCNC(=O)[C@H](O)[C@@H](O)[C@H](O)[C@H](O)CO)CCCNC(=O)[C@H](O)[C@@H](O)[C@H](O)[C@H](O)CO)[C@H]1CC[C@H]2[C@@H]3CC[C@@H]4C[C@H](O)CC[C@]4(C)[C@H]3C[C@H](O)[C@]12C [N,N-Bis(3-D-gluconamidopropyl)deoxycholamido]
Protease type-XXIV [2]; additive concentration 1.0%
  Effect of γ-globulin (%): 19.9%

## O=S(=O)(O)CCN1CCN(CCO)CC1 [HEPES]
[5]; Pronase
  Relative activity (%) ASO-312: 37%
[5]; Protease type XXIV
  Relative activity (%) ASO-312: 34%
ASOx; one day at 37° C.
  ascorbic acid treating capability after storage: lost almost entirely
ASOx; two weeks at 10° C.
  ascorbic acid treating capability after storage: lost almost entirely
[6]; Pronase
  Relative activity (%) ASO-311: 17%
[6]; Protease type XXIV
  Relative activity (%) ASO-311: 31%
Ascorbic acid oxidase
  ascorbic acid eliminating capability after storing: almost no ascorbic acid eliminating capability

## C[N+](C)(C)CC(=O)O [Betaine]
Protease type-XXIV [2]; additive concentration 0.10%
  Effect of γ-globulin (%): 7.6%
Protease type-XXIV [3]
  effect of inhibiting a protease reaction with globulin: effect of inhibiting a protease reaction with globulin

## CCCCCCCCCCCC[N+](C)(C)[O-] [Lauryldimethylamine oxide]
Protease type-XXIV [2]; additive concentration 1.0%
  Effect of γ-globulin (%): 17.8%

## CCCCCCCCO[C@@H]1O[C@H](CO)[C@@H](O)[C@H](O)[C@H]1O [Octylglucoside]
Protease type-XXIV [2]; additive concentration 1.0%
  Effect of γ-globulin (%): 18.5%

## CCCCCCCCCCCC[N+](C)(C)C.[Cl-] [Lauryltrimethylammonium chloride]
Protease type-XXIV [2]; additive concentration 1.0%
  Effect of γ-globulin (%): 16.7%

## trishydroxymethylaminomethane
[5]; Pronase
  Relative activity (%) ASO-312: 62%
[5]; Protease type XXIV
  Relative activity (%) ASO-312: 44%
[6]; Pronase
  Relative activity (%) ASO-311: 55%
[6]; Protease type XXIV
  Relative activity (%) ASO-311: 52%
Ascorbic acid oxidase
  ascorbic acid eliminating capability after storing: no change

## C[C@@H](O)[C@H](N)C(=O)O [Reactive 327th amino acid Threonine]
[4]
  Reactivity ratio, glycated lysine / glycated valine: 927
